Data on 7 molecules can be found in US8715745B2 (priority 2009, dated 2014).

The subject of data set [1] is Leptosphaeria nodorum (LEPTNO). The experiment in a line: In vitro fungitoxicity (growth inhibition) against Leptosphaeria nodorum in copper-minus and copper-plus medium. The format is cell-based. To be noted: 0.05 μg/mL, 72 h. How it is done: In vitro fungitoxicity assays against Leptosphaeria nodorum (LEPTNO) were conducted using the liquid growth medium described by Coursen and Sisler (American Journal of Botany 1960, 47, 541-549) except that copper micronutrient, normally included as CuSO4, was omitted. The medium, termed “copper-minus”, was prepared by dissolving 10 g glucose, 1.5 g K2HPO4, 2 g KH2PO4 and 1 g (NH4)2SO4 in 1 liter of deionized water and treating the solution with 0.5 g Chelex 100 resin (Bio-Rad Analytical grade, 50-100 mesh, sodium form, cat#142-2822) by stirring at room temperature for 1 h. MgSO4.7H2O (0.5 g) was added, and stirring was continued for a further hour. Trace elements (minus CuSO4), and vitamins described by Coursen and Sisler were added from concentrated stock solutions and the entire medium was sterilized by filtration. Medium containing copper was prepared by adding CuCl2.2H2O to the copper-minus medium at 20 μM. […]
LEPTNO was grown on potato dextrose agar in 9 cm diameter petri dishes for 7 days. […] Microtiter plates were inoculated with 100 μL of this spore suspension and the plates incubated at 25° C. for 72 h before assessing fungal growth by measuring light scattering in a NepheloStar plate reader. Growth inhibition was determined by comparing growth in the presence of test compound with growth in control wells lacking test compound. […]

Another data set concerns Phytophthora infestans. The format is in vivo, Phytophthora infestans on tomato plant. To be noted: 50 ppm hydrazone with 50 μM CuCl2.2H2O, applied 24 h before inoculation, assessed 7 days after inoculation, tomato.
For the next data set, the system named is Ustilago maydis. Kind of data set: In vitro fungitoxicity (growth inhibition) against Ustilago maydis in copper-minus and copper-plus medium. The format is cell-based. To be noted: for % Inhn. Plus copper Predicted: 1 μg/mL, Colby formula. How it is done: In vitro fungitoxicity assays against Ustilago maydis were conducted using the copper-minus medium described in Example 5. Medium containing copper was prepared by adding CuCl2.2H2O to the copper-minus medium at 20 μM. Test compounds were dissolved in dimethylsulfoxide (DMSO) at 200 μg/mL and 1 μL aliquots were added to two wells of flat-bottomed 96-well microtiter plates. Copper-minus medium (100 μL) was added to one of the wells and copper-plus medium to the second well. Control wells, included for each medium, received 1 uL DMSO and 100 μL of medium.
Ustilago maydis was grown in 50 mL potato dextrose broth with shaking at 25° C. for 24 h. A 10 mL aliquot of the culture was centrifuged at 2000 rpm for 2 min, resuspended in 10 mL of sterile Chelex 100-treated water, and centrifuged again. The spores were resuspended in copper-minus medium, and the suspension adjusted to a concentration of 1×10^5 spores per mL. Microtiter plate wells containing test compound of DMSO (control) as described above were inoculated with 100 μL of this spore suspension and the plates incubated at 25° C. for 48 h before assessing fungal growth by measuring light scattering in a NepheloStar plate reader. Growth inhibition was determined by comparing growth in the presence of test compound with growth in control wells lacking test compound.
Results for growth inhibition by test compounds at 1 μg/mL in copper-plus medium (“% Inhn Plus Copper Observed”) were compared with predicted results (“% Inhn Plus Copper Predicted”) that were calculated using the formula set forth by S. R. Colby in Weeds 1967, 15, 20-22 based on results obtained for the same compounds in copper-minus medium (“% Inhn Minus Copper Observed”) and the inhibition attributed to copper chloride alone, as determined by comparing growth in copper-minus and copper-plus media without any test compound. Results illustrate that hydrazones and copper produce a synergistic fungitoxic effect towards Ustilago maydis.

The next data set has as its system Phytophthora capsici. Kind of data set: In vitro fungitoxicity (growth inhibition) against Phytophthora capsici in copper-minus AS and copper-plus AS medium. Type of data set: cell-based. To be noted: for % Inhn Plus copper Predicted: 0.050 μg/mL, Colby formula. As for the experimental part: In vitro fungitoxicity assays against Phytophthora capsici were conducted using the asparagine-sucrose (AS) medium described in Canadian Journal of Microbiology 1961, 7, 15-25, except that copper micronutrient, normally included as CuSO4, was omitted. The medium, termed “copper-minus AS”, was prepared by dissolving 2 g asparagine, 0.43 g KH2PO4, 0.3 g K2HPO4, 0.4 mL of a 0.5 mg/mL thiamine-HCl solution and 15 g sucrose in 1 liter of deionized water and treating the solution with 0.5 g Chelex 100 resin (Bio-Rad Analytical grade, 50-100 mesh, sodium form, cat#142-2822) by stirring at room temperature for 1 h. The pH was adjusted to 6.4, then MgSO4.7H2O (100 μg/mL), FeSO4.7H2O (1 μg/mL), CaCl2 (50 μg/mL), ZnSO4.7H2O (1 μg/mL), NaMoO4.2H2O (0.2 μg/mL) and MnCl2.4H2O (0.2 μg/mL) were added and the entire medium was sterilized by filtration. “Copper-plus AS” medium was prepared by adding CuCl2.2H2O to the copper-minus AS medium at 100 μM. Test compounds were dissolved in DMSO then dilutions in copper-minus AS and copper-plus AS media were prepared as 100 μL aliquots in flat-bottomed 96-well microtiter plates.
Phytophthora capsici was grown on petri plates, 9 cm in diameter, containing 15 mL V-8 agar, pH 7.0, containing 200 mL V-8 juice, 4 g CaCO3, and 20 g agar per liter. Plates were inoculated with 7-mm plugs from a 1-week old culture, incubated at 25° C. in the dark for 3 days, and then placed under fluorescent lights for 4 days to induce sporulation. Zoospore release from sporangia was induced by adding 15 mL of sterile deionized water (which had been treated with Chelex 100 resin using 0.5 g resin per liter of water by stirring at room temperature for 1 h) to each plate, and incubating for 10 min at 25° C. followed by 20 min at 4° C. The plates were returned to 25° C. for 10 min and the aqueous suspension of released zoospores was recovered. The zoospore suspension was adjusted to 5×10^4 spores/mL by dilution into Chelex 100-treated water. Microtiter plates were inoculated with 100 μL of spore suspension and incubated at 25° C. for 48 h before assessing fungal growth by measuring light scattering in a NepheloStar plate reader. Growth inhibition was determined by comparing growth in the presence of test compound with growth in control wells lacking test compound.
Results for growth inhibition by test compounds in copper-plus AS medium (“% Inhn Plus Copper Observed”) were compared with predicted values (“% Inhn Plus Copper Predicted”) that were calculated using the formula set forth by S. R. Colby in Weeds (1967), 15, 20-22 based on results obtained for the same compounds in copper-minus AS medium (“% Inhn Minus Copper Observed”) and the inhibition attributed to copper chloride alone, as determined by comparing growth in copper-minus AS and copper-plus AS media without any test compound across experiments. Results illustrate that hydrazones and copper produce a synergistic fungitoxic effect towards Phytophthora capsici.

Data set [2] concerns Septoria tritici isolate USA-184. The experiment in a line: In vitro fungitoxicity (growth inhibition) against Septoria tritici in copper-minus and copper-plus medium. To be noted: CuCl2 1 μM without test compound. Type of data set: cell-based. How it is done: In vitro fungitoxicity assays against Septoria tritici were conducted using the copper-minus medium described in Example 5. Medium containing copper was prepared by adding CuCl2.2H2O to the copper-minus medium at 2 μM. Test compounds were dissolved in dimethylsulfoxide (DMSO) at 10 μg/mL and 1 μL aliquots were added to two wells of flat-bottomed 96-well microtiter plates. Copper-minus medium (100 μL) was added to one of the wells and copper-plus medium to the second well. Control wells, included for each medium, received 1 uL DMSO and 100 μL of medium.
Septoria tritici isolate USA-184 was grown on potato dextrose agar at 18° C. under black lights for 3 days. A loopful of spores was transferred from the culture to a 15 mL tube containing 5 mL of sterile Chelex-treated water. The spores were centrifuged at 2000 rpm for 2 min, resuspended in 10 mL water, and centrifuged again. […] Microtiter plate wells containing test compound of DMSO (control) as described above were inoculated with 100 μL of this spore suspension and the plates incubated at 25° C. for 90 h before assessing fungal growth by measuring light scattering in a NepheloStar plate reader. Growth inhibition was determined by comparing growth in the presence of test compound with growth in control wells lacking test compound. […]

The subject of data set [3] is Staphylococcus aureus, Escherichia coli, Aspergillus niger and A. flavus. To be noted: literature report, Proceedings of the National Academy of Sciences, India 1991; cited from earlier work.

By melting point is commonly meant the temperature of the solid-liquid transition. `O=C(N/N=C/c1cc(Cl)c(Cl)cc1O)c1ccccc1` [Compound 5] returned a melting point of 206 to 208 °C. The “LEPTNO % Inhn. Plus Copper Observed” value in data set [1] (copper-plus medium (CuCl2, 10 μM)) was determined as 97.8%. For the same molecule, the inhibition of growth at 0.05 µg/mL in data set [1] (Parastagonospora nodorum, copper-minus medium, read-out: LEPTNO % Inhn. Minus Copper Observed) stood at 0.1%. In the data set with Phytophthora infestans, the “TLB % Control” value is listed as 66.1%.

For `Cc1ccc(C(=O)N/N=C/c2ccc(Cl)c(Cl)c2O)c(O)c1` [Compound 20], the “% Inhn. Plus copper Predicted” value in the data set with Ustilago maydis was 69.6%. The “% Inhn Plus copper Predicted” value with Phytophthora capsici is listed as 4.5%.

As for `O=C(N/N=C/c1c(Cl)ccc(Cl)c1O)c1cccc(Cl)c1` [Compound 25], in the data set with Ustilago maydis, the “% Inhn. Plus copper Predicted” value is listed as 14.7%. Besides, the “% Inhn Plus copper Predicted” value with Phytophthora capsici is recorded as 4.5%.

Regarding `O=C(N/N=C/c1c(O)cccc1Cl)c1ccc([N+](=O)[O-])cc1` [Compound 50], the “% Inhn. Plus copper Predicted” value in the data set with Ustilago maydis was 20.4%. Further, the “% Inhn Plus copper Predicted” value in the data set on Phytophthora capsici is listed as 5.1%.

For the molecule `O=C(N/N=C/c1cccc(Cl)c1O)c1cccc(Cl)c1` [Compound 58], the “% Inhn. Plus copper Predicted” value with Ustilago maydis was 42.1%. Besides, the “% Inhn Plus copper Predicted” value in the data set with Phytophthora capsici is recorded as 13.2%.

For `O.O.[Cl][Cu][Cl]` [CuCl2, CuCl2.2H2O, reference compound], the “% Inhn., copper chloride alone” value with Ustilago maydis (CuCl2 10 μM without test compound) stood at 11.9%. In the data set on Phytophthora capsici (CuCl2 50 uM without test compound, across experiments), the “% Inhn, copper chloride alone” value is 4.5 ± 7.9%. Further, the “% Inhibition, copper chloride alone” value in data set [2] was 0%; in data set [2] (listed as copper chloride), “no effect on growth”.

For `O=C(NN=Cc1ccccc1O)c1ccccc1O` [o-hydroxybenzaldehyde-N-salicyloylhydrazone], the antimicrobial activity result in data set [3] is recorded as “Antimicrobial activity has been reported”.
